In patent publication US20130156845A1, “LIPID FORMULATED SINGLE STRANDED RNA” (ALNYLAM PHARMACEUTICALS, INC., priority 2010, published 2013):
e = 2'-O-(2-methoxyethyl) (MOE); {P} = phosphate; f = 2'-fluoro

Assays:
PTEN = PTEN mRNA reduction in HeLa cells, dose response (Example 59); assay type: cell-based, human; conditions: percent inhibition of PTEN mRNA, real-time PCR normalized to RIBOGREEN, 0.20-50 nM
Method: When cells reached 65-75% confluency, they are treated with one or more oligomeric compounds. The oligomeric compound is mixed with LIPOFECTIN™ Invitrogen Life Technologies, Carlsbad, Calif.) in Opti-MEM™-1 reduced serum medium (Invitrogen Life Technologies, Carlsbad, Calif.) to achieve the desired concentration of the oligomeric compound(s) and a LIPOFECTIN™ concentration of 2.5 or 3 μg/mL per 100 nM oligomeric compound(s). This transfection mixture is incubated at room temperature for approximately 0.5 hours. For cells grown in 96-well plates, wells are washed once with 100 μL OPTI-MEM™-1 and then treated with 130 μL of the transfection mixture. Cells grown in 24-well plates or other standard tissue culture plates are treated similarly, using appropriate volumes of medium and oligomeric compound(s). […]
Quantitation of target mRNA levels is accomplished by real-time quantitative PCR using the ABI PRISM™ 7600, 7700, or 7900 Sequence Detection System (PE-Applied Biosystems, Foster City, Calif.) according to manufacturer's instructions. This is a closed-tube, non-gel-based, fluorescence detection system which allows high-throughput quantitation of polymerase chain reaction (PCR) products in real-time. As opposed to standard PCR in which amplification products are quantitated after the PCR is completed, products in real-time quantitative PCR are quantitated as they accumulate. […]

[1] = Phosphate stability in mouse serum (Example 68)
Method: Single-stranded oligomeric compounds were tested for stability in mouse serum.

**Q.** What does the source list for “P-UfUfGfUfCfUfCfUfGfGfUfCfCfUfUfAfCfUfUfAeAe (antisense UUGUCUCUGGUCCUUACUUAA; sugars from the 5' end f19 e2, 5' {P}, backbone not given here) [ISIS 404320]”?
**A.** EC50 (PTEN): 13.2 nM; T1/2 full length ([1]; four compounds tested separately, second table): 24 min; T1/2 full length ([1]; full compound with intact phosphorous moiety, first table): 24 min
